Test results taken from patent US8575091B1, “Amylin analogues and pharmaceutical compositions thereof” (Novo Nordisk A/S, priority 2012, dated 2013).
Numbered stars: 1 amine (or outer) side, 2 acyl side, 3 side chain; on linkers, the order of the positions; unused ones are H or OH. Bridge positions count the residues as written; N and C are the ends. Side chains are listed from the residue outwards. Peptide text beside a SMILES is read from it. * marks the point of attachment. C20 diacid = O=C(O)CCCCCCCCCCCCCCCCCCC(=O)*; γGlu = O=C(O)[C@H](CCC(=O)[*:2])N[*:1]; AEEA = NCCOCCOCC(=O)O

Columns and labels:
[1] = molecular target: T1, human calcitonin receptor (Homo sapiens, UniProt P30988); test: Assay (VII) binding to the human calcitonin receptor (SPA, 125I-Calcitonin); details: read-out: hCTR bind IC50;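 note: cell membranes coupled to SPA beads, competitive displacement read by scintillation counting, IC50 derived from a one-site competition fit as a measure of receptor affinity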
T1 construct: expressed in transfected cells
T1 sequence (P30988 25-474): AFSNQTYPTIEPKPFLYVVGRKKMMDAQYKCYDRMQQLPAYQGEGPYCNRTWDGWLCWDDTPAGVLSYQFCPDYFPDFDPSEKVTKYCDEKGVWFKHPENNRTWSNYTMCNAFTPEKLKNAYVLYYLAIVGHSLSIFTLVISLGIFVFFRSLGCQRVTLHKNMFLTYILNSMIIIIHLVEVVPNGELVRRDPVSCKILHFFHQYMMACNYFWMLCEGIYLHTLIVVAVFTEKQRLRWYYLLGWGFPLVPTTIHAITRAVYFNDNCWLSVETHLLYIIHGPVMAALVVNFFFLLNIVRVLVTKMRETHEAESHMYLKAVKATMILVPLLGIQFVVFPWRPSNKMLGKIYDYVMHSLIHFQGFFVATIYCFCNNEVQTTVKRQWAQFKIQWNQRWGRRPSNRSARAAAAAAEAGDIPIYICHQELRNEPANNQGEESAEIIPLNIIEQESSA

[2] = molecular target: T2, human amylin receptor (Homo sapiens, UniProt O60896+P30988); test: Assay (V) binding to the human amylin receptor (SPA, 125I-rat amylin); details: for IC50: human amylin receptor membranes, SPA, read-out: hAmylin-R bind IC50
T2 construct: expressed in transfected cells
T2 sequence (P30988 25-474): T1 sequence (P30988 25-474)
T2 sequence (O60896 24-148 partner): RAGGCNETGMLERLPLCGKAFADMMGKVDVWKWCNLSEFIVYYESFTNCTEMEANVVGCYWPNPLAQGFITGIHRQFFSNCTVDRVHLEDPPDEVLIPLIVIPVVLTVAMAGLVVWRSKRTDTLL
Outline: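 IC50, taken as receptor affinity, came from one-site binding competition analysis of scintillation proximity counts. Amylin 3(a)/CRE-luc cell membranes (35 ng/μL final) were mixed with SPA beads (0.05 mg/well) in 50 mM Hepes pH 7.4 containing CaCl2, MgCl2, 0.1% OA and 0.02% Tween20.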

[3] = molecular target: T1, human calcitonin receptor; test: Assay (II)a functional assay, human calcitonin receptor (CRE luciferase, BHK cells);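 note: luminescence from a CRE-driven luciferase reporter, read by single photon counting after cells were exposed to test samples for 3 h at 37 °C under 5% CO2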; type: cell-based; details: read-out: hCTR funct. EC50
[4] = molecular target: T3, human amylin receptor (amylin 3(a) receptor: human calcitonin receptor + RAMP-3) (Homo sapiens, UniProt O60896+P30988); test: Assay (II)a functional assay, human amylin receptor (CRE luciferase, BHK cells); type: cell-based; details: for EC50: functional assay, human amylin receptor, read-out: hAmylin-R funct. EC50
T3 construct: expressed in transfected cells
T3 sequence (P30988 25-474): T1 sequence (P30988 25-474)
T3 sequence (O60896 24-148 partner): T2 sequence (O60896 24-148 partner)

SMILES: CC[C@H](C)[C@H](NC(=O)[C@H](C)NC(=O)CNC(=O)[C@H](Cc1ccccc1)NC(=O)[C@H](CC(N)=O)NC(=O)[C@@H]1CCCN1C(=O)[C@H](CO)NC(=O)[C@H](CO)NC(=O)[C@H](Cc1c[nH]cn1)NC(=O)[C@H](CCCNC(=N)N)NC(=O)[C@H](CC(C)C)NC(=O)[C@H](Cc1ccccc1)NC(=O)[C@H](CC(N)=O)NC(=O)[C@H](C)NC(=O)[C@H](CC(C)C)NC(=O)[C@H](CCCNC(=N)N)NC(=O)[C@H](CCC(N)=O)NC(=O)[C@@H](NC(=O)[C@H](C)NC(=O)[C@@H]1CSSC[C@H](NC(=O)[C@@H](N)CCCCNC(=O)COCCOCCNC(=O)COCCOCCNC(=O)CC[C@H](NC(=O)CCCCCCCCCCCCCCCCCCC(=O)O)C(=O)O)C(=O)N[C@@H](CC(N)=O)C(=O)N[C@@H]([C@@H](C)O)C(=O)N[C@@H](C)C(=O)N[C@@H]([C@@H](C)O)C(=O)N1)[C@@H](C)O)C(=O)N1CCC[C@H]1C(=O)N[C@@H](CO)C(=O)N[C@@H](CO)C(=O)N[C@H](C(=O)N[C@@H](CC(N)=O)C(=O)N[C@H](C(=O)NCC(=O)N[C@@H](CO)C(=O)N[C@@H](CCC(=O)O)C(=O)N[C@H](C(=O)N[C@@H](Cc1ccc(O)cc1)C(N)=O)[C@@H](C)O)C(C)C)[C@@H](C)O [Example 25]
- IC50 [1]: 43.4 nM
- IC50 [2]: 0.768 nM
- EC50 [3]: 10 nM
- EC50 [4]: 0.217 nM

SMILES: CC[C@H](C)[C@H](NC(=O)[C@H](C)NC(=O)CNC(=O)[C@H](Cc1ccccc1)NC(=O)[C@H](CC(N)=O)NC(=O)[C@@H]1CCCN1C(=O)[C@H](CO)NC(=O)[C@H](CO)NC(=O)[C@H](Cc1c[nH]cn1)NC(=O)[C@H](CCCNC(=N)N)NC(=O)[C@H](CC(C)C)NC(=O)[C@H](Cc1ccccc1)NC(=O)[C@H](CCC(=O)O)NC(=O)[C@H](C)NC(=O)[C@H](CC(C)C)NC(=O)[C@H](CCCNC(=N)N)NC(=O)[C@H](CCC(N)=O)NC(=O)[C@@H](NC(=O)[C@H](C)NC(=O)[C@@H]1CSSC[C@H](NC(=O)[C@H](CCCCN)NC(=O)CC[C@H](NC(=O)CC[C@H](NC(=O)CCCCCCCCCCCCCCCCCCC(=O)O)C(=O)O)C(=O)O)C(=O)N[C@@H](CC(N)=O)C(=O)N[C@@H]([C@@H](C)O)C(=O)N[C@@H](C)C(=O)N[C@@H]([C@@H](C)O)C(=O)N1)[C@@H](C)O)C(=O)N1CCC[C@H]1C(=O)N[C@@H](CO)C(=O)N[C@@H](CO)C(=O)N[C@H](C(=O)N[C@@H](CC(N)=O)C(=O)N[C@H](C(=O)NCC(=O)N[C@@H](CO)C(=O)N[C@@H](CC(N)=O)C(=O)N[C@H](C(=O)N1CCC[C@H]1C(N)=O)[C@@H](C)O)C(C)C)[C@@H](C)O [Example 14] ({C20 diacid-γGlu-γGlu}-KCNTATCATQRLAEFLRHSSPNFGAIPSSTNVGSNTP-NH2; disulfide 2-7)
- IC50 [1]: 0.432 nM
- IC50 [2]: 0.196 nM
- Ratio hCT/hAmylin binding ([2]; human binding ratio, included for comparison): 2.2
- EC50 [3]: 0.238 nM
- Ratio hCT/hAmylin funct. ([4]; Table 6, human functional selectivity (hCTR EC50 / hAmylin-R EC50)): 1.6
- EC50 [4]: 0.146 nM

SMILES: CC[C@H](C)[C@H](NC(=O)[C@H](C)NC(=O)CNC(=O)[C@H](Cc1ccccc1)NC(=O)[C@H](CC(N)=O)NC(=O)[C@@H]1CCCN1C(=O)[C@H](CO)NC(=O)[C@H](CO)NC(=O)[C@H](Cc1c[nH]cn1)NC(=O)[C@H](CCCNC(=N)N)NC(=O)[C@H](CC(C)C)NC(=O)[C@H](Cc1ccccc1)NC(=O)[C@H](Cc1c[nH]cn1)NC(=O)[C@H](C)NC(=O)[C@H](CC(C)C)NC(=O)[C@H](CCCNC(=N)N)NC(=O)[C@H](CCC(N)=O)NC(=O)[C@@H](NC(=O)[C@H](C)NC(=O)[C@@H]1CSSC[C@H](NC(=O)[C@H](CCCCN)NC(=O)CC[C@H](NC(=O)CCCCCCCCCCCCCCCCCCC(=O)O)C(=O)O)C(=O)N[C@@H](CC(N)=O)C(=O)N[C@@H]([C@@H](C)O)C(=O)N[C@@H](C)C(=O)N[C@@H]([C@@H](C)O)C(=O)N1)[C@@H](C)O)C(=O)N1CCC[C@H]1C(=O)N[C@@H](CO)C(=O)N[C@@H](CO)C(=O)N[C@H](C(=O)N[C@@H](CC(N)=O)C(=O)N[C@H](C(=O)NCC(=O)N[C@@H](CO)C(=O)N[C@@H](CCC(=O)O)C(=O)N[C@H](C(=O)N[C@@H](Cc1ccc(O)cc1)C(N)=O)[C@@H](C)O)C(C)C)[C@@H](C)O [Example 30] ({C20 diacid-γGlu}-KCNTATCATQRLAHFLRHSSPNFGAIPSSTNVGSETY-NH2; disulfide 2-7)
- IC50 [1]: 21.7 nM
- IC50 [2]: 0.919 nM
- EC50 [3]: 1.68 nM
- EC50 [4]: 0.134 nM

SMILES: CC[C@H](C)[C@H](NC(=O)[C@H](C)NC(=O)CNC(=O)[C@H](Cc1ccccc1)NC(=O)[C@H](CC(N)=O)NC(=O)[C@@H]1CCCN1C(=O)[C@H](CO)NC(=O)[C@H](CO)NC(=O)[C@H](Cc1c[nH]cn1)NC(=O)[C@H](CCCNC(=N)N)NC(=O)[C@H](CC(C)C)NC(=O)[C@H](Cc1ccccc1)NC(=O)[C@H](Cc1c[nH]cn1)NC(=O)[C@H](C)NC(=O)[C@H](CC(C)C)NC(=O)[C@H](CCCNC(=N)N)NC(=O)[C@H](CCC(N)=O)NC(=O)[C@@H](NC(=O)[C@H](C)NC(=O)[C@@H]1CSSC[C@H](NC(=O)[C@@H](N)CCCCNC(=O)COCCOCCNC(=O)CC[C@H](NC(=O)CCCCCCCCCCCCCCCCCCC(=O)O)C(=O)O)C(=O)N[C@@H](CC(N)=O)C(=O)N[C@@H]([C@@H](C)O)C(=O)N[C@@H](C)C(=O)N[C@@H]([C@@H](C)O)C(=O)N1)[C@@H](C)O)C(=O)N1CCC[C@H]1C(=O)N[C@@H](CO)C(=O)N[C@@H](CO)C(=O)N[C@H](C(=O)N[C@@H](CC(N)=O)C(=O)N[C@H](C(=O)NCC(=O)N1CCC[C@H]1C(=O)N[C@@H](CC(N)=O)C(=O)N[C@H](C(=O)N[C@@H](Cc1ccc(O)cc1)C(N)=O)[C@@H](C)O)C(C)C)[C@@H](C)O [Example 68] (H-K([AEEA-γGlu-C20 diacid])CNTATCATQRLAHFLRHSSPNFGAIPSSTNVGPNTY-NH2; disulfide 2-7)
- IC50 [1]: 5.66 nM
- IC50 [2]: 0.088 nM
- EC50 [3]: 0.932 nM
- EC50 [4]: 0.054 nM

SMILES: CC[C@H](C)[C@H](NC(=O)[C@H](C)NC(=O)CNC(=O)[C@H](Cc1ccccc1)NC(=O)[C@H](CC(N)=O)NC(=O)[C@@H]1CCCN1C(=O)[C@H](CO)NC(=O)[C@H](CO)NC(=O)[C@H](Cc1c[nH]cn1)NC(=O)[C@H](CCCNC(=N)N)NC(=O)[C@H](CC(C)C)NC(=O)[C@H](Cc1ccccc1)NC(=O)[C@H](CC(N)=O)NC(=O)[C@H](C)NC(=O)[C@H](CC(C)C)NC(=O)[C@H](CCCNC(=N)N)NC(=O)[C@H](CCC(N)=O)NC(=O)[C@@H](NC(=O)[C@H](C)NC(=O)[C@@H]1CSSC[C@H](NC(=O)[C@@H](N)CCCCNC(=O)CC[C@H](NC(=O)CCCCCCCCCCCCCCCCCCC(=O)O)C(=O)O)C(=O)N[C@@H](CC(N)=O)C(=O)N[C@@H]([C@@H](C)O)C(=O)N[C@@H](C)C(=O)N[C@@H]([C@@H](C)O)C(=O)N1)[C@@H](C)O)C(=O)N1CCC[C@H]1C(=O)N[C@@H](CO)C(=O)N[C@@H](CO)C(=O)N[C@H](C(=O)N[C@@H](CC(N)=O)C(=O)N[C@H](C(=O)NCC(=O)N[C@@H](CO)C(=O)N[C@@H](CCC(=O)O)C(=O)N[C@H](C(=O)N[C@@H](Cc1ccc(O)cc1)C(N)=O)[C@@H](C)O)C(C)C)[C@@H](C)O [Example 27]
- IC50 [1]: 34.5 nM
- IC50 [2]: 0.837 nM
- EC50 [3]: 3 nM
- EC50 [4]: 0.133 nM

SMILES: CC[C@H](C)[C@H](NC(=O)[C@H](C)NC(=O)CNC(=O)[C@H](Cc1ccccc1)NC(=O)[C@H](CC(N)=O)NC(=O)[C@@H]1CCCN1C(=O)[C@H](CO)NC(=O)[C@H](CO)NC(=O)[C@H](Cc1c[nH]cn1)NC(=O)[C@H](CCCNC(=N)N)NC(=O)[C@H](CC(C)C)NC(=O)[C@H](Cc1ccccc1)NC(=O)[C@H](CC(N)=O)NC(=O)[C@H](C)NC(=O)[C@H](CC(C)C)NC(=O)[C@H](CCCNC(=N)N)NC(=O)[C@H](CCC(N)=O)NC(=O)[C@@H](NC(=O)[C@H](C)NC(=O)[C@@H]1CSSC[C@H](NC(=O)[C@@H](N)CCCCNC(=O)CC[C@H](NC(=O)CCCCCCCCCCCCCCC(=O)O)C(=O)O)C(=O)N[C@@H](CC(N)=O)C(=O)N[C@@H]([C@@H](C)O)C(=O)N[C@@H](C)C(=O)N[C@@H]([C@@H](C)O)C(=O)N1)[C@@H](C)O)C(=O)N1CCC[C@H]1C(=O)N[C@@H](CO)C(=O)N[C@@H](CO)C(=O)N[C@H](C(=O)N[C@@H](CC(N)=O)C(=O)N[C@H](C(=O)NCC(=O)N[C@@H](Cc1c[nH]cn1)C(=O)N[C@@H](CC(N)=O)C(=O)N[C@H](C(=O)N[C@@H](Cc1ccc(O)cc1)C(N)=O)[C@@H](C)O)C(C)C)[C@@H](C)O [Example 111]
- IC50 [1]: 10.8 nM
- IC50 [2]: 0.58 nM
- EC50 [3]: 2.21 nM
- EC50 [4]: 0.034 nM
